In PubChem BioAssay (NCI) one finds TGI data, which are given here for 13 compounds.

Among the test systems are HOP-92 NSCLC; SK-OV-3 ovarian; RXF 393 renal; NCI-H522 lung; A498 renal; LOX IMVI melanoma; NCI/ADR-RES ovarian; COLO 205 colon; HOP-62 NSCLC; NCI-H460 lung; SF-268 CNS; SW-620 colon; T-47D breast; DU-145 prostate; MOLT-4 leukemia; HL-60(TB) leukemia; SR leukemia; CCRF-CEM leukemia.
Common to all, as to test: DTP human tumour cell line panel, 48 h

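The compound was tested at five concentrations on cells cultured in 96-well plates, with a 48-hour exposure period. TGI: total growth inhibition.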

`O=C(/C=C(\O)c1ccc(Cl)cc1)C(=O)N=Nc1c(O)[nH]c2ccc(Br)cc12`: the TGI in the assay on HOP-92 NSCLC was more than 100 µM; in the assay on SK-OV-3 ovarian, more than 100 µM; in the assay with RXF 393 renal it was more than 100 µM; in the assay with NCI-H522 lung, more than 100 µM; in the assay on A498 renal, 74.3 µM; in the assay with LOX IMVI melanoma, more than 100 µM. In addition, the concentration for total growth inhibition (TGI) in the assay on NCI/ADR-RES ovarian, in the assay on COLO 205 colon, with HOP-62 NSCLC, with NCI-H460 lung, in the assay on SF-268 CNS and in the assay with SW-620 colon was more than 100 µM in each case. The total growth inhibition concentration (TGI) with T-47D breast is more than 100 µM; with DU-145 prostate, more than 100 µM; with MOLT-4 leukemia, 4.85 µM.
Regarding `CC(=O)C1C(=O)C(=O)N(c2cccc(C)c2C)C1=O` (stereo not given), the TGI with HOP-92 NSCLC, with SK-OV-3 ovarian, with HL-60(TB) leukemia, in the assay on LOX IMVI melanoma, in the assay with NCI/ADR-RES ovarian and in the assay on COLO 205 colon was more than 100 µM in each case. In addition, the TGI with HOP-62 NSCLC, in the assay with T-47D breast, in the assay with DU-145 prostate and in the assay with MOLT-4 leukemia was more than 100 µM each time.
Regarding `COc1cc(/C=C2\C[C@H]3[C@@H]4CC=C5C[C@@H](O)CC[C@]5(C)[C@H]4CC[C@]3(C)[C@H]2O)cc(OC)c1OC`, the TGI is 65.8 µM in the assay on HOP-92 NSCLC; more than 100 µM in the assay with SK-OV-3 ovarian; 18.3 µM in the assay on RXF 393 renal; more than 100 µM in the assay on NCI-H522 lung; 23 µM with HL-60(TB) leukemia; 80.6 µM in the assay on A498 renal. In addition, the total growth inhibition concentration (TGI) in the assay with LOX IMVI melanoma is 27.3 µM; with NCI/ADR-RES ovarian, more than 100 µM; in the assay on COLO 205 colon, 42.2 µM; in the assay on HOP-62 NSCLC, 41.3 µM; in the assay with NCI-H460 lung it was more than 100 µM; in the assay with SF-268 CNS, more than 100 µM. Further, the TGI with SW-620 colon was more than 100 µM; in the assay on T-47D breast it was 72.6 µM; with DU-145 prostate it was more than 100 µM; in the assay with MOLT-4 leukemia, 91.4 µM.
Consider `CCOC(=O)c1cc2c(ccc3cc(C(=O)OCC)[nH]c32)[nH]1`, for which the TGI in the assay with HOP-92 NSCLC is more than 100 µM; in the assay with SK-OV-3 ovarian, more than 100 µM; in the assay with RXF 393 renal, 66.8 µM; in the assay on SR leukemia, 45.3 µM; in the assay on NCI-H522 lung it was more than 100 µM; with A498 renal, more than 100 µM. In addition, the TGI in the assay on LOX IMVI melanoma was more than 100 µM; in the assay on CCRF-CEM leukemia, more than 100 µM; with COLO 205 colon, more than 100 µM; with HOP-62 NSCLC, 59 µM; in the assay with NCI-H460 lung, more than 100 µM; in the assay on SF-268 CNS, more than 100 µM. Moreover, the concentration for total growth inhibition (TGI) in the assay with SW-620 colon, in the assay on T-47D breast, in the assay with DU-145 prostate and in the assay with MOLT-4 leukemia was more than 100 µM each time.
For the compound `N#Cc1c2ccc([N+](=O)[O-])cc2c(=O)n2c1sc1ccc(C(F)(F)F)cc12`, the TGI in the assay with HOP-92 NSCLC, in the assay with SK-OV-3 ovarian, in the assay with RXF 393 renal, with NCI-H522 lung, in the assay on A498 renal and in the assay with LOX IMVI melanoma was more than 100 µM in each case. Also, the concentration for total growth inhibition (TGI) in the assay with NCI/ADR-RES ovarian, in the assay with COLO 205 colon, with HOP-62 NSCLC, in the assay on NCI-H460 lung, in the assay on SF-268 CNS and with SW-620 colon was more than 100 µM in each case. For the same compound, the TGI with T-47D breast, in the assay with DU-145 prostate and in the assay on MOLT-4 leukemia was more than 100 µM each time.
On to `CCOc1ccc(N=NC2C(=O)N(C(=O)CC(=O)Nc3ccccc3OC)N=C2C)cc1` (stereo not given), for which the total growth inhibition concentration (TGI) is more than 50.6 µM in the assay on HOP-92 NSCLC; more than 87.4 µM with SK-OV-3 ovarian; 26.3 µM in the assay on RXF 393 renal; 55.3 µM with NCI-H522 lung; 22.5 µM in the assay on HL-60(TB) leukemia; more than 31.6 µM in the assay with A498 renal. For the same compound, the total growth inhibition concentration (TGI) is more than 100 µM with LOX IMVI melanoma; more than 100 µM with CCRF-CEM leukemia; more than 100 µM with NCI/ADR-RES ovarian; more than 100 µM in the assay with COLO 205 colon; more than 49.5 µM in the assay with HOP-62 NSCLC; more than 42.8 µM in the assay on NCI-H460 lung. For the same compound, the concentration for total growth inhibition (TGI) with SF-268 CNS was 97 µM; with SW-620 colon, 52.9 µM; with T-47D breast it was more than 100 µM; in the assay with DU-145 prostate it was more than 100 µM; with MOLT-4 leukemia it was more than 100 µM.
Take `Cc1nc(C)c(C(=O)NNC(=O)Cc2ccccc2)cc1C(=O)NNC(=O)Cc1ccccc1`: the total growth inhibition concentration (TGI) in the assay with HOP-92 NSCLC, in the assay with SK-OV-3 ovarian, in the assay with RXF 393 renal, with NCI-H522 lung, with HL-60(TB) leukemia and in the assay with A498 renal was more than 100 µM each time. The total growth inhibition concentration (TGI) with LOX IMVI melanoma, with CCRF-CEM leukemia, in the assay on NCI/ADR-RES ovarian, with COLO 205 colon, in the assay with HOP-62 NSCLC and with NCI-H460 lung was more than 100 µM in each case. Besides, the concentration for total growth inhibition (TGI) in the assay on SF-268 CNS, in the assay with SW-620 colon, in the assay with T-47D breast, with DU-145 prostate and in the assay on MOLT-4 leukemia was more than 100 µM throughout.
On to `CC(=O)OC1CCN(C(=O)c2ccccc2)CC1CC1(c2cc3ccccc3[nH]2)OCCO1` (stereo not given), for which the TGI is more than 100 µM with HOP-92 NSCLC; more than 100 µM with SK-OV-3 ovarian; more than 100 µM in the assay on RXF 393 renal; more than 100 µM in the assay on NCI-H522 lung; 53.6 µM in the assay with HL-60(TB) leukemia; 96.2 µM in the assay with A498 renal. In addition, the total growth inhibition concentration (TGI) in the assay with LOX IMVI melanoma, with CCRF-CEM leukemia, in the assay on NCI/ADR-RES ovarian, in the assay on COLO 205 colon, with HOP-62 NSCLC and in the assay with SW-620 colon was more than 100 µM in each case. Further, the total growth inhibition concentration (TGI) in the assay with T-47D breast was more than 100 µM; with DU-145 prostate, more than 100 µM; with MOLT-4 leukemia, 75 µM.
In the case of `CC(=N/NC(=S)N1CCCCC1)/C(=N\NC(=S)N1CCCCC1)c1ccccc1`, the total growth inhibition concentration (TGI) in the assay with HOP-92 NSCLC was determined as 3.36 µM; in the assay with SK-OV-3 ovarian, 3.49 µM; in the assay on RXF 393 renal it was 2.82 µM; in the assay with NCI-H522 lung, 4.18 µM; in the assay with A498 renal, 2.65 µM; with LOX IMVI melanoma it was 25.9 µM. Also, the total growth inhibition concentration (TGI) in the assay with NCI/ADR-RES ovarian was 6.43 µM; in the assay with COLO 205 colon, 4.06 µM; with HOP-62 NSCLC, 4.43 µM; in the assay with NCI-H460 lung, 4.48 µM; with SF-268 CNS, 3.37 µM; with T-47D breast, 3.99 µM. Moreover, the TGI in the assay on DU-145 prostate is 0.973 µM; in the assay on MOLT-4 leukemia it was more than 100 µM.
`CCOC(=O)c1c(N)nn2c1cc1cccccc12`: the TGI in the assay with HOP-92 NSCLC is 95.8 µM; with SK-OV-3 ovarian it was more than 100 µM; with RXF 393 renal it was more than 100 µM; with NCI-H522 lung, 46.7 µM; in the assay with HL-60(TB) leukemia it was more than 100 µM; in the assay on A498 renal it was 84.9 µM. In addition, the total growth inhibition concentration (TGI) is 72.9 µM in the assay with LOX IMVI melanoma; more than 100 µM with CCRF-CEM leukemia; 57.7 µM with NCI/ADR-RES ovarian; 78.4 µM in the assay with COLO 205 colon; more than 100 µM in the assay with HOP-62 NSCLC; 58.6 µM in the assay with NCI-H460 lung. Further, the total growth inhibition concentration (TGI) in the assay with SF-268 CNS is 68.2 µM; with SW-620 colon, more than 100 µM; in the assay on T-47D breast, 64.4 µM; in the assay on DU-145 prostate it was more than 100 µM; in the assay on MOLT-4 leukemia it was more than 100 µM.
As for `OC(c1nc2ccccc2s1)(C(F)(F)F)C(F)(F)F`, the TGI in the assay with SK-OV-3 ovarian, in the assay with RXF 393 renal, in the assay on NCI-H522 lung, with HL-60(TB) leukemia, with A498 renal and in the assay on LOX IMVI melanoma was more than 100 µM throughout. Moreover, the total growth inhibition concentration (TGI) in the assay on CCRF-CEM leukemia, with NCI/ADR-RES ovarian, with COLO 205 colon, in the assay on HOP-62 NSCLC, in the assay with NCI-H460 lung and in the assay with SF-268 CNS was more than 100 µM throughout. The total growth inhibition concentration (TGI) with SW-620 colon, in the assay with T-47D breast, in the assay with DU-145 prostate and with MOLT-4 leukemia was more than 100 µM each time.
For `C=C1C(=O)O[C@@H]2[C@H]1C[C@@H](O)[C@H](C)[C@@](O)(C(=O)/C=C/C)[C@H]2OC(=O)C(C)CC` (stereo not given in full), the TGI is 9.83 µM with HOP-92 NSCLC; more than 100 µM in the assay on SK-OV-3 ovarian; 5.36 µM in the assay with RXF 393 renal; 3.42 µM with NCI-H522 lung; 37.7 µM with A498 renal; 12.3 µM in the assay on LOX IMVI melanoma. Moreover, the TGI with CCRF-CEM leukemia was 0.229 µM; in the assay on NCI/ADR-RES ovarian, more than 67.2 µM; with COLO 205 colon it was 3.33 µM; with HOP-62 NSCLC, 49.2 µM; in the assay on NCI-H460 lung it was more than 100 µM; in the assay with SF-268 CNS, more than 54 µM. Also, the total growth inhibition concentration (TGI) in the assay on SW-620 colon was 6.65 µM; with T-47D breast, 71.8 µM; in the assay on DU-145 prostate it was 22.8 µM; in the assay on MOLT-4 leukemia it was more than 36.9 µM.
As to `O=C(Nc1cc(C(=O)Nc2cccc(S(=O)(=O)O)c2)cc(C(=O)Nc2cccc(S(=O)(=O)O)c2)c1)c1cccc(C(=O)Nc2cc(C(=O)Nc3cccc(S(=O)(=O)O)c3)cc(C(=O)Nc3cccc(S(=O)(=O)O)c3)c2)c1`, the total growth inhibition concentration (TGI) was more than 100 µM in the assay with SK-OV-3 ovarian; more than 100 µM with RXF 393 renal; more than 100 µM in the assay with NCI-H522 lung; 65.5 µM with HL-60(TB) leukemia; more than 100 µM with A498 renal; more than 100 µM in the assay on LOX IMVI melanoma. The TGI in the assay with CCRF-CEM leukemia, in the assay with NCI/ADR-RES ovarian, in the assay on COLO 205 colon, in the assay on HOP-62 NSCLC, in the assay with NCI-H460 lung and in the assay with SF-268 CNS was more than 100 µM in each case. The TGI with SW-620 colon, with T-47D breast, in the assay with DU-145 prostate and with MOLT-4 leukemia was more than 100 µM throughout.

By TGI is commonly meant the concentration giving total growth inhibition. A higher TGI goes with less potent growth arrest.
